Assay results: PMC5874820 (Pharmaceutics, 2018)
Where two headings read alike, the source gives them in different places.

Assays:
[1] = system: PANC-1 xenograft tumor; assay: In vivo PANC-1 tumor growth xenograft model; design: species or system female athymic nude mice; conditions: for percentage of inhibition of tumor growth: Panc-1 xenograft in nude mice
Procedure: The PANC-1 cells derived from human pancreatic carcinoma of ductal cell origin were obtained from National Center for Cell Science, Pune, India. The cells were cultured in Dulbecco's modified medium (DMEM) supplemented with 10% v/v fetal bovine serum (FBS), 1% penicillin, and 1% streptomycin. Cultures (Figure S1, Supplementary Materials) were maintained at 37 °C in a humidified atmosphere with 5% CO2. Female athymic nude mice were obtained from the National Centre for Laboratory Animal Sciences (NCLAS), National Institute of Nutrition (ICMR), Hyderabad, India and were selected after careful initial screening for any external signs of disease or injuries. They were housed in individual cages in the conventional animal facilities of NCLAS, a registered facility with Committee for the Purpose of Control and Supervision of Experimentation on Animals (CPCSEA) (154/1999), Government of India. The environmental conditions were kept at 21 ± 2 °C, with 10-15 air changes per hour and relative humidity of 50-55 percent with 12 h light/dark cycle water. Animals were quarantined for 4 days and all the animals had free access to sterile formulated feed pellets and filtered potable clean water. PANC-1 cells (1 × 10^6) using matrigel were injected subcutaneously into the flanks of mice (Figure S2, Supplementary Materials). […] Each mouse was administered orally (p.o.) every day with either control vehicle (CMC), CUR (50 mg/kg), ART (50 mg/kg), CUR-ART (50 and 100 mg/kg) and Doxorubicin (2 mg/kg) by intravenous (i.v.) route. […] At the same time, the body weight of each animal was measured. At the end of the experiment (4 weeks after cell inoculation), the animals were euthanized by CO2 and sacrificed. Tumors from each animal were removed and measured. Each value represents mean ± SD (Standard Deviation). The control and experimental animal groups were compared by paired t-test. **** p < 0.0001 was considered significant.

[2] = cited from earlier work
[3] = design: method as in doi:10.1039/C4RA11935E; conditions: curcumin (crystalline), oral dose of 200 mg/kg, male SD rats; cited from earlier work
[4] = design: method as in PMID 17999464, PMID 1529022; conditions: cited from earlier work
[5] = Supersaturation study in SGF and SIF (without enzyme), UV at 420 nm; type: physicochemical; conditions: 100 µg/mL CUR, 30 °C
Procedure: Supersaturation of CUR and CUR-ART were measured in SGF and SIF (without enzyme) medium at 30 °C. The supersaturated solution (CUR 100 µg/mL dissolved in 5 mL of SGF/SIF fluid) was stirred at 800 rpm using a magnetic stirrer at 30 °C. After regular intervals of time 2, 4, 6, 12 and 24 h the solution concentration of curcumin was determined at 420 nm maxima on a Thermo Scientific Evolution 300 UV-Vis spectrometer (Thermo Scientific, Waltham, MA, USA).

[6] = Pharmacokinetic study, oral gavage, curcumin in plasma by HPLC; conditions: oral administration, SD rats
Procedure: Sprague-Dawley rats (200 ± 50 g) were obtained from Sainath Agencies Limited (Hyderabad, India). Animals were acclimatized for 1 week prior to experimentation in a temperature-controlled, 12/12 h light/dark room, and were allowed standard laboratory food and water. The rats were fasted overnight (~18 h) with free access to water before the experiment.
All compounds (200 mg/kg) were suspended in 1% sodium carboxymethylcellulose (CMC) separately and administered by oral gavage. Blood (0.4 mL) was withdrawn from retro-orbital plexus into lithium heparin tube at the following times after drug administration: 30, 45, 60, 90, 120, 180, 240, 360, 480 and 720 min. […]
Curcumin Plasma concentrations of CUR were analyzed by HPLC (Shimadzu, Mumbai, India). The area under the curve (AUC) for serum concentration versus time plots was calculated by linear trapezoidal rate. […]
The HPLC analyses were performed using a Shimadzu Prominence model LC-20AD equipped with 20 mL injection loop, and a photodiode array detector and CUR detected at 420 nm. […]
The standard curve was calculated by a linear relationship between concentration and area with regression factor R = 0.999. The Area under the curve (AUC) for serum concentration vs. Time plots was calculated by the linear trapezoidal rule. […]

[7] = pure curcumin, reference not given

For `C[C@@H]1CC[C@H]2[C@@H](C)C(=O)O[C@@H]3O[C@@]4(C)CC[C@@H]1[C@]32OO4` [ART, Artemisinin], the “percentage of inhibition of tumor growth” value ([1]; 50 mg/kg p.o. daily) was 29.22%.
For Curcumin, the “detection by HPLC at higher dosage levels” value ([2]; dosage >1 g/kg, ref recent reports) is given as “could not be detected”, the half-life ([2]; pure curcumin in crystalline form, reference not given) is given as 45 to 60 min and the half-life [2, 7] is given as < 60 min. The “time in which it decomposes” value [2, 7] was “less than 1 h”, the “plasma concentration by HPLC” value [3] was “no plasma concentration for curcumin (crystalline) could be detected” and the aqueous solubility [4] was 7.8 µg/mL. The “percentage of inhibition of tumor growth” value ([1]; 50 mg/kg p.o. daily) was 41.23%, the “precipitation / residence time of solubilized CUR” value [5] was “precipitated faster than CUR-ART” and the “detectable curcumin levels in the serum” value [6] was “did not show any detectable levels”.
For `COc1cccc2c1C(=O)c1c(O)c3c(c(O)c1C2=O)C[C@@](O)(C(=O)CO)C[C@@H]3O[C@H]1C[C@H](N)[C@H](O)[C@H](C)O1` [doxorubicin], the “percentage of inhibition of tumor growth” value ([1]; 2 mg/kg i.v. daily) was 69.97% and the “effect on tumor size compared to other solids and controls” value ([1]; p < 0.0001, Panc-1 xenograft in nude mice) was “decreased tumor size significantly”.
